For the test, the system named is venous thrombosis. As to the kind of experiment: antithrombotic activity, venous thrombosis: venous stasis under hypercoagulation (Wessler), thrombus removed and weighed. The class given is in vivo, male Wistar rats. As to conditions: Rattus norvegicus, oral, suspension in PEG 400, thrombosis induced 4 hours after treatment. As to the method:
A venous stasis under hypercoagulation is produced according to the technique described by WESSLER et al. (J. Applied Physiol. 1959, p. 943-946). As in the technique described by J. HAUPMAN et al. (Thrombosis and Haemostasis 43(2), 1980, p. 118), the hypercoagulant used is a solution of activated factor X (Xa) supplied by Flow Laboratories (71 Knat per 12.5 ml of isotonic solution).
The study is performed on unfasted male Wistar rats weighing 250 to 280 g, divided into groups of 10 animals each. The test products are administered orally as a suspension in PEG 400. A thrombosis is induced 4 hours after this treatment and the thrombus formed is removed and weighed.
The results obtained at a dose of 3 mg/kg, administered orally, have been collated in Table I. The results obtained with the known products of the afore-mentioned prior art have also been collated in this Table.

This passage reports inhibition in vivo results from patent publication US5100913A, “Novel sulfonylphenyl-β-D-thioxylosides, their method of preparation and their use in therapeutics” (Fournier Industrie et Sante, priority 1990, dated 1992).

Regarding `CS(=O)(=O)c1ccccc1S[C@@H]1SC[C@@H](O)[C@H](O)[C@H]1O` [Example 4, 2-(methylsulfonyl)phenyl 1.5-dithio-β-D-xylopyranoside], the inhibition in vivo at 3 mg/kg is 26%.

As for `CC(=O)O[C@@H]1[C@@H](OC(C)=O)[C@H](Sc2ccc(S(=O)(=O)N(C)C)cc2)SC[C@H]1OC(C)=O` [Example 17, 4-(N,N-dimethylsulfonamidyl)phenyl 2,3,4-tri-O-acetyl-1,5-dithio-β-D-xylpyranoside], the inhibition in vivo at 3 mg/kg worked out at 56%.

`N#Cc1ccc(S(=O)(=O)c2ccc(S[C@@H]3SC[C@@H](O)[C@H](O)[C@H]3O)cc2)cc1` [Example 16, 4-((4-cyanophenyl)sulfonyl)phenyl 1,5-dithio-β-D-xylopyranoside] displayed an inhibition in vivo at 3 mg/kg of 66%.

In the case of `CC(=O)O[C@@H]1[C@@H](OC(C)=O)[C@H](Sc2ccc(S(=O)(=O)c3ccccc3)cc2)SC[C@H]1OC(C)=O` [Example 1, 4-(phenylsulfonyl)phenyl 2,3,4-tri-O-acetyl-1,5-dithio-β-D-xylopyranoside], the inhibition in vivo at 3 mg/kg is 20%.

The compound `CC(=O)O[C@@H]1[C@@H](OC(C)=O)[C@H](Sc2ccccc2S(C)(=O)=O)SC[C@H]1OC(C)=O` [Example 3, 2-(methylsulfonyl)phenyl 2,3,4-tri-O-acetyl-1,5-dithio-β-D-xylopyranoside] displayed an inhibition in vivo at 3 mg/kg of 29%.

Consider `CC(=O)O[C@@H]1[C@@H](OC(C)=O)[C@H](OC(C)=O)CS[C@H]1Oc1ccc(S(=O)(=O)N(C)C)cc1` [Example 19, 4-(N,N-dimethylsulfonamidyl)phenyl 2,3,4-tri-O-acetyl-5-thio-β-D-xylpyranoside], for which the inhibition in vivo at 3 mg/kg worked out at 23%.

`CCS(=O)(=O)c1ccc(S[C@@H]2SC[C@@H](OC(C)=O)[C@H](OC(C)=O)[C@H]2OC(C)=O)cc1` [Example 9, 4-(ethylsulfonyl)phenyl 2,3,4-tri-O-acetyl-1,5-dithio-β-D-xylpyranoside] displayed an inhibition in vivo at 3 mg/kg of 31%.

For `O=S(=O)(c1ccccc1)c1ccc(S[C@@H]2SC[C@@H](O)[C@H](O)[C@H]2O)cc1` [Example 2, 4-(phenylsulfonyl)phenyl 1,5-dithio-β-D-xylopyranoside], testing at 3 mg/kg gave an inhibition in vivo of 49%.

The compound `CC(=O)O[C@@H]1[C@@H](OC(C)=O)[C@H](Sc2ccc(S(=O)(=O)c3ccc(F)cc3)cc2)SC[C@H]1OC(C)=O` [Example 13] displayed an inhibition in vivo at 3 mg/kg of 58%.

On to `CS(=O)(=O)c1ccc(S[C@@H]2SC[C@@H](O)[C@H](O)[C@H]2O)cc1` [Example 6, 4-(methylsulfonyl)phenyl 1,5-dithio-β-D-xylopyranoside], for which the inhibition in vivo at 3 mg/kg came out at 61%.

`O=S(=O)(c1ccc(F)cc1)c1ccc(S[C@@H]2SC[C@@H](O)[C@H](O)[C@H]2O)cc1` [Example 14, 4-[(4-fluorophenyl)sulfonyl]phenyl 1,5-dithio-β-D-xylpyranoside]: the inhibition in vivo at 3 mg/kg is 61%.

As to `CS(=O)(=O)c1ccc(O[C@@H]2SC[C@@H](O)[C@H](O)[C@H]2O)cc1` [Example 8, 4-(methylsulfonyl)phenyl 5-thio-β-D-xylpyranoside], the inhibition in vivo at 3 mg/kg was 30%.

As to `CN(C)S(=O)(=O)c1ccc(O[C@@H]2SC[C@@H](O)[C@H](O)[C@H]2O)cc1` [Example 20, 4-(N,N-dimethylsulfonamidyl)phenyl 5-thio-β-D-xylpyranoside], the inhibition in vivo at 3 mg/kg was determined as 58%.

Compound `O=S(=O)(c1ccc(S[C@@H]2SC[C@@H](O)[C@H](O)[C@H]2O)cc1)N1CCCCC1` [Example 22, 4-(N-(piperidin-1-yl)sulfonamidyl)phenyl 1,5-dithio-β-D-xylpyranoside] came in with an inhibition in vivo at 3 mg/kg of 47%.

As for `CN(C)S(=O)(=O)c1ccc(S[C@@H]2SC[C@@H](O)[C@H](O)[C@H]2O)cc1` [Example 18, 4-(N,N-dimethylsulfonamidyl)phenyl 1.5-dithio-β-D-xylopyranoside], the inhibition in vivo at 3 mg/kg worked out at 46%.

`CCS(=O)(=O)c1ccc(S[C@@H]2SC[C@@H](O)[C@H](O)[C@H]2O)cc1` [Example 10, 4-(ethylsulfonyl)phenyl 1,5dithio-β-D-xylopyranoside] showed an inhibition in vivo at 3 mg/kg of 31%.

In turn, `CS(=O)(=O)c1cccc(S[C@@H]2SC[C@@H](O)[C@H](O)[C@H]2O)c1` [Example 12] registered an inhibition in vivo at 3 mg/kg of 43%.

As a reminder, the inhibition in vivo is the change of the read-out against control, counted positive when it falls.
